From PMC8151276, “An Integrated Approach toward NanoBRET Tracers for Analysis of GPCR Ligand Engagement” (Molecules, 2021)

Experiments:
FSHR = target: T1, FSHR (Homo sapiens, UniProt P23945); test: NanoBRET screen HiBiT-FSHR in HEK293; assay type: binding
T1 construct: purchased Promega (in-house HiBiT-GPCR construct library, NanoBRET)
T1 sequence (P23945 18-695): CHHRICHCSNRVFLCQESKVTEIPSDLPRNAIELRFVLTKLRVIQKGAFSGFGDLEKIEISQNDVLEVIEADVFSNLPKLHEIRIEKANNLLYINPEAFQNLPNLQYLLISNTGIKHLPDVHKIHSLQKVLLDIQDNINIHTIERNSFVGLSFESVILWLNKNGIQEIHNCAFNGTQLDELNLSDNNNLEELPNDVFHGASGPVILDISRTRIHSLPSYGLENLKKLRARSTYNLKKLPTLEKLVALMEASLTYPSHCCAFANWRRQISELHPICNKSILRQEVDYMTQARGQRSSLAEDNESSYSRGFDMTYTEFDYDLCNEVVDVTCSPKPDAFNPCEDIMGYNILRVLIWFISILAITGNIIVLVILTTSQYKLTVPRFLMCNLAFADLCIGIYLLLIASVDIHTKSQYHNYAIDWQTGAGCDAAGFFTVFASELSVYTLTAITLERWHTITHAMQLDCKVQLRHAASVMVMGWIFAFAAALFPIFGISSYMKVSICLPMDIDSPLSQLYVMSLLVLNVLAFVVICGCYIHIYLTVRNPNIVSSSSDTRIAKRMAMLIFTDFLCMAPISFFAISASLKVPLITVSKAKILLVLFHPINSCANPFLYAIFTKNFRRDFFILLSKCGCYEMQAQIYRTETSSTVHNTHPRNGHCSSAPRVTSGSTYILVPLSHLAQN
Method: (§1) Each tracer candidate was screened across the entire library of HiBiT-GPCR constructs using NanoBRET as the detection modality. As depicted in Figure 4A, the specificity of interactions was evaluated through decrease in BRET due to competitive displacement of a bound tracer by excess parental compound. Each tracer was analyzed for binding to each HiBiT-GPCR fusion in the absence and in the presence of competing parental compound. Briefly, HEK293 cells were transfected with HiBiT-GPCR constructs diluted into promoterless DNA to reduce expression and maximize translocation to the cell surface. Each tracer candidate was then screened at concentrations of 1 μM and 0.1 μM across cells expressing these fusions. Cells were treated for 1.5 h with tracer either alone or in the presence of 20 μM competing parental compound (i.e., control). BRET was measured upon addition of purified LgBiT and subsequent complementation with HiBiT genetically fused to a GPCR. The specificity of interactions was assessed through a decrease in BRET signal due to competitive displacement of the bound tracer. To further gauge the robustness of these interactions, the fold response over the control (i.e., BRETtracer/BRETcontrol) was calculated. We chose a 1.5-fold response, which translates to ≥7-fold signal over noise as the minimal threshold required to score an interaction as positive. […]. Below we highlight the screening results obtained for our exemplary fluorescent tracers based on Clozapine, Amitriptyline and AZD1283.
(§2) HiBiT-GPCR DNA constructs were diluted in 10 mM Tris pH 8 to a final concentration of 0.01 μg/μL, arrayed in 96-well plates and stored at −20 °C. For transfection, HEK293 cells were suspended in Opti-MEM (without phenol red) supplemented with 2% fetal bovine serum (Seradigm) and 100 units/mL penicillin–streptomycin (Gibco) at a final concentration of 220,000 cells/mL and dispensed into white 96-well plates at 90 μL/well. Subsequent transfections and screens were carried using an Agilent Bravo Automated Liquid Handling Platform. First, the 96-well HiBiT DNA arrays were diluted 25-fold in Opti-MEM (without serum or phenol red) to a final concentration of 0.0004 μg/μL and 20 μL of the diluted DNAs were transferred into new 96-well plates. Next, promoterless carrier DNA (1 μg/μL) was diluted 25-fold (0.04 μg/μL) and then dispensed into the diluted arrays at 20 μL/well. Following brief mixing, Viafect transfection reagent (Promega) diluted 16-fold into Opti-MEM was dispensed into the plates at 40 μL/well. After mixing by pipetting, plates were incubated for 10 min on the pipetting station deck. The DNA-transfection reagent complexes were then added to plates containing cells. To facilitate the screen, 10 μL of DNA-transfection reagent complexes were added in duplicates to the top 4 and bottom 4 rows, resulting in two identical 48-well arrays per plate. Plates with transfected cells were incubated for 18–20 h at 37 °C/5% CO2. A screen of each tracer across the entire library using two different concentrations requires duplicate plates of transfected cells. Depending on the number of tracers being screened, transfections can be scaled up using the same ratios. The next day, for each tracer, four 20× screening solutions in tracer dilution buffer (Promega) were prepared: two duplicates at final concentration of 20 μM and two duplicates at a final concentration of 2 μM. A competing unmodified compound was added to one of each duplicate at a final concentration of 400 μM. The four resulting solutions were diluted 4-fold in Opti-MEM without serum or phenol red to generate 5× solutions (5 µM and 0.5 µM tracer +/− 100 μM competing compound). To screen the library, a BioTek MultiFlo FX liquid dispenser was used to dispense 22.5 µL of tracer solution to the top 4 rows and 22.5 µL tracer + competing compound solution to the 4 bottom rows. Plates were briefly mixed on an orbital shaker and incubated for 1.5 h at room temperature. […]

C3AR1 = target: T2, C3AR1 (Homo sapiens, UniProt Q16581); test: NanoBRET screen HiBiT-C3AR1 in HEK293; assay type: binding
T2 construct: purchased Promega (in-house HiBiT-GPCR construct library, NanoBRET)
T2 sequence (Q16581 1-482): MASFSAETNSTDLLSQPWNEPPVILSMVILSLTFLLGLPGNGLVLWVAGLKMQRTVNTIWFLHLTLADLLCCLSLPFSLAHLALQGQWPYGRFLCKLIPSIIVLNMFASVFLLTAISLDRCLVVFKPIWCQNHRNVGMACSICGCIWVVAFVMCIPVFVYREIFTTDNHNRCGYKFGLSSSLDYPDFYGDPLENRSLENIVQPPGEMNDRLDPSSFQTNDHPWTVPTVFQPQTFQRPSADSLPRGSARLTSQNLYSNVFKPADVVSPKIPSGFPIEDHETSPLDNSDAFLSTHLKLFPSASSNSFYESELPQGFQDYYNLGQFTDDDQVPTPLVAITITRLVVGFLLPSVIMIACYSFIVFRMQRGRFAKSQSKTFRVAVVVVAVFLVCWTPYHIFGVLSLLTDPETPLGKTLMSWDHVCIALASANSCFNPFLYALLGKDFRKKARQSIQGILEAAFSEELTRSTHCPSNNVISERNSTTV
Method: as §1, §2

| SMILES | NanoBRET Fold Response (FSHR; FSHR, tracer 0.1μM) | NanoBRET Fold Response (FSHR; FSHR, tracer 1μM) | NanoBRET Fold Response (C3AR1; C3AR1, tracer 0.1μM) | NanoBRET Fold Response (C3AR1; C3AR1, tracer 1μM) | other results |
| --- | --- | --- | --- | --- | --- |
| Cc1nc2n(c(=O)c1CCN1CCC(c3noc4cc(F)ccc34)CC1)CCCC2OC(=O)NCCOCCOCCOCCOCCNC(=O)CCc1ccc2n1[B-](F)(F)[N+]1=C(c3ccc[nH]3)C=CC1=C2 (centres unmarked) [Risperidone-2-NB590] | 0.95 | 1.23 | 0.93 | 0.98 | – |
| COc1ccc2[nH]c(-c3ccc(CNC(=O)CCOCCOCCOCCOCCNC(=O)CCc4ccc5n4[B-](F)(F)[N+]4=C(c6ccc[nH]6)C=CC4=C5)cc3)c(CCNC(C)=O)c2n1 [AzomelatoninICO9-2-NB590] | – | – | – | – | NanoBRET Fold Response (FSHR; 0.1μM tracer): 1.32; NanoBRET Fold Response (FSHR; 1μM tracer): 1.02; NanoBRET Fold Response (C3AR1; 0.1μM tracer): 0.78; NanoBRET Fold Response (C3AR1; 1μM tracer): 0.87 |
| COc1ccccc1N1CCN(CCCCN2C(=O)c3ccc(CNC(=O)CCOCCOCCOCCOCCNC(=O)CCc4ccc5n4[B-](F)(F)[N+]4=C(c6ccc[nH]6)C=CC4=C5)cc3C2=O)CC1 [NAN-190-2-NB590] | 0.97 | 0.97 | 1.03 | 0.96 | – |
| O=C(CCc1ccc2n1[B-](F)(F)[N+]1=C(c3ccc[nH]3)C=CC1=C2)NCCOCCOCCNC(=O)OCCOCCN1CCN(C2=Nc3ccccc3Sc3ccccc32)CC1 [Quetiapine-a-2-NB590] | 0.89 | 1.07 | 0.86 | 1.02 | – |
| O=C(CCOCCOCCOCCOCCNC(=O)CCc1ccc2n1[B-](F)(F)[N+]1=C(c3ccc[nH]3)C=CC1=C2)NCCCN1CCN(C2=Nc3cc(Cl)ccc3Nc3ccccc32)CC1 [Clozapine-a-2-NB590] | – | – | – | – | NanoBRET Fold Response (FSHR; FSHR, 0.1μM tracer): 0.99; NanoBRET Fold Response (FSHR; FSHR, 1μM tracer): 1.32; NanoBRET Fold Response (C3AR1; C3AR1, 0.1μM tracer): 1.18; NanoBRET Fold Response (C3AR1; C3AR1, 1μM tracer): 1.21 |
| N#CN=C(NCCCOc1cccc(CN2CCCCC2)c1)NCCNC(=O)CCOCCOCCOCCOCCNC(=O)CCc1ccc2n1[B-](F)(F)[N+]1=C(c3ccc[nH]3)C=CC1=C2 [Aminopotentidine-2-NB590] | 0.99 | 1.06 | 0.99 | 1.04 | – |
| O=C(CCc1ccc2n1[B-](F)(F)[N+]1=C(c3ccc[nH]3)C=CC1=C2)NCc1ccc(C(=O)NCCOCCOCCNCC(O)COc2cccc3ccccc23)cc1 (centres unmarked) [Propranolol-3-NB590] | – | – | – | – | NanoBRET Fold Response (FSHR; FSHR, 0.1μM): 0.98; NanoBRET Fold Response (FSHR; FSHR, 1μM): 1.04; NanoBRET Fold Response (C3AR1; C3AR1, 0.1μM): 1.05; NanoBRET Fold Response (C3AR1; C3AR1, 1μM): 1.07 |
| CN(CCC=C1c2ccccc2CCc2ccccc21)C(=O)CCOCCOCCOCCOCCNC(=O)CCc1ccc2n1[B-](F)(F)[N+]1=C(c3ccc[nH]3)C=CC1=C2 [Amitriptyline-e-2-NB590] | – | – | – | – | NanoBRET Fold Response (C3AR1; tracer at 1μM): 1.02 |
